Data taken from ChEMBL document CHEMBL1201862, “PubChem BioAssay data set” (2004).
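48-hour exposure; five concentrations; linearly interpolated endpoints. Abbreviation: GI50, concentration required for 50% inhibition of growth.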 The source made the active and inactive calls. Rule as the data show it: active = GI50 up to about 1.1 µM and inactive = higher.

Assays:
Assay in all cases: DTP human tumour cell line panel, 48 h
ACHN = test system: ACHN
COLO 205 = test system: COLO 205
EKVX = test system: EKVX
HCC 2998 = test system: HCC 2998
IGROV-1 = test system: IGROV-1
MCF7 = test system: MCF7
Malme-3M = test system: Malme-3M
NCI-H23 = test system: NCI-H23
NCI/ADR-RES = test system: NCI/ADR-RES
OVCAR-4 = test system: OVCAR-4
OVCAR-5 = test system: OVCAR-5
OVCAR-8 = test system: OVCAR-8
RPMI-8226 = test system: RPMI-8226
RXF 393 = test system: RXF 393
SF-268 = test system: SF-268
SF-295 = test system: SF-295
SK-MEL-28 = test system: SK-MEL-28
SNB-75 = test system: SNB-75
UACC-62 = test system: UACC-62
SK-MEL-2 = test system: SK-MEL-2

Row | SMILES | GI50 (ACHN) | GI50 (COLO 205) | GI50 (EKVX) | GI50 (HCC 2998) | GI50 (IGROV-1) | GI50 (MCF7) | GI50 (Malme-3M) | GI50 (NCI-H23) | GI50 (NCI/ADR-RES) | GI50 (OVCAR-4) | GI50 (OVCAR-5) | GI50 (OVCAR-8) | GI50 (RPMI-8226) | GI50 (RXF 393) | GI50 (SF-268) | GI50 (SF-295) | GI50 (SK-MEL-28) | GI50 (SNB-75) | GI50 (UACC-62) | GI50 (SK-MEL-2)
1 | Cc1c(Cl)nc(Cl)nc1Cl | 0.421 µM (active) | 0.307 µM (active) | 1.9 µM (inactive) | 1.2 µM (inactive) | 3.01 µM (inactive) | 0.984 µM (active) | 1.05 µM (active) | 2.18 µM (inactive) | 1.36 µM (inactive) | 1.46 µM (inactive) | 1.88 µM (inactive) | 2.48 µM (inactive) | 2.38 µM (inactive) | 1.87 µM (inactive) | 1.73 µM (inactive) | 5.7 µM (inactive) | 3.18 µM (inactive) | 5.68 µM (inactive) | 4 µM (inactive) | –
2 | CCC(C(C)N1CC(=O)NC(=O)C1)N1CC(=O)NC(=O)C1 (configuration not stated) | – | 0.506 µM (active) | > 19.7 µM (inactive) | > 61.4 µM (inactive) | > 100 µM (inactive) | 4.08 µM (inactive) | 13.4 µM (inactive) | 29 µM (inactive) | 44.8 µM (inactive) | > 100 µM (inactive) | > 25.1 µM (inactive) | > 100 µM (inactive) | 97.5 µM (inactive) | > 100 µM (inactive) | > 87.9 µM (inactive) | > 100 µM (inactive) | > 100 µM (inactive) | > 48.9 µM (inactive) | > 100 µM (inactive) | > 100 µM (inactive)
3 | O=S(=O)(OI(O)CC(F)(F)F)C(F)(F)F | > 100 µM (inactive) | > 100 µM (inactive) | > 100 µM (inactive) | > 100 µM (inactive) | > 100 µM (inactive) | > 100 µM (inactive) | – | > 100 µM (inactive) | > 100 µM (inactive) | > 100 µM (inactive) | > 100 µM (inactive) | > 100 µM (inactive) | > 100 µM (inactive) | > 100 µM (inactive) | > 100 µM (inactive) | > 100 µM (inactive) | > 100 µM (inactive) | > 100 µM (inactive) | > 100 µM (inactive) | > 100 µM (inactive)
4 | CCN(CC)C(=S)N/N=C(\C)c1cccc(C)n1 | 0.0184 µM (active) | < 0.01 µM (active) | < 0.01 µM (active) | 0.363 µM (active) | < 0.01 µM (active) | < 0.01 µM (active) | 0.0365 µM (active) | – | < 0.01 µM (active) | – | 2.08 µM (inactive) | 0.287 µM (active) | < 0.01 µM (active) | 0.568 µM (active) | 0.0593 µM (active) | 0.315 µM (active) | 0.308 µM (active) | 4.11 µM (inactive) | 0.259 µM (active) | 2.2 µM (inactive)
5 | CCCCSCC(NC(=O)/C=C/c1c(C)[nH]c(=O)[nH]c1=O)C(=O)OC (configuration not stated) | – | 36.5 µM (inactive) | 34.2 µM (inactive) | 29 µM (inactive) | 84.5 µM (inactive) | 15.6 µM (inactive) | 15.7 µM (inactive) | 90.8 µM (inactive) | 358 µM (inactive) | 13.8 µM (inactive) | 77.1 µM (inactive) | 37.9 µM (inactive) | 104 µM (inactive) | 56.5 µM (inactive) | 23 µM (inactive) | 101 µM (inactive) | 75 µM (inactive) | 55.5 µM (inactive) | 51.9 µM (inactive) | 25.2 µM (inactive)
6 | C=C[C@H]1CN2CCc3c([nH]c4c([C@@H]5CCCN5C)c(O)ccc34)[C@@H]2C[C@@H]1C[C@H]1c2[nH]c3ccccc3c2CCN1C | 1.92 µM (inactive) | 1.26 µM (inactive) | 1.58 µM (inactive) | 0.177 µM (active) | 1.31 µM (inactive) | 1.75 µM (inactive) | – | 1.85 µM (inactive) | 1.61 µM (inactive) | 1.42 µM (inactive) | 1.85 µM (inactive) | 1.69 µM (inactive) | 0.35 µM (active) | 0.215 µM (active) | 1.48 µM (inactive) | 1.01 µM (active) | 1.55 µM (inactive) | 0.813 µM (active) | 1.68 µM (inactive) | 1.91 µM (inactive)
7 | CC1(C)CC23C4COC(=O)C2CCC1C3CC4=O (configuration not stated) | – | 15.6 µM (inactive) | 26.7 µM (inactive) | 13.9 µM (inactive) | 21.9 µM (inactive) | 19.5 µM (inactive) | 7.21 µM (inactive) | 3.27 µM (inactive) | 7.21 µM (inactive) | 15.2 µM (inactive) | 32.6 µM (inactive) | 10 µM (inactive) | 5.28 µM (inactive) | 1.71 µM (inactive) | 10.6 µM (inactive) | 19.8 µM (inactive) | 6.12 µM (inactive) | 19.8 µM (inactive) | 10.5 µM (inactive) | 14.5 µM (inactive)
